# Source: ChEMBL document CHEMBL5532643, “Design and synthesis of etrasimod derivatives as potent antibacterial agents against Gram-positive bacteria” (Eur J Med Chem, 2024)
# “And” between values parts separate entries of the source, which are not always exact repeats. Equal entries are not always repeated.
# Experiments:
# [1] = tested on: Staphylococcus aureus; assay: Synergistic antibacterial activity against methicillin-resistant Staphylococcus aureus ATCC 43300 assessed as fractional inhibitory concentration index incubated for 18 to 20 hrs in presence of ciprofloxacin by checkboard assay; format: functional; conditions: time 18-20 hrs
# [2] = tested on: Staphylococcus aureus; assay: Synergistic antibacterial activity against Staphylococcus aureus ATCC 25923 incubated for 18 to 20 hrs in presence of vancomycin by checkboard assay; format: functional; conditions: time 18-20 hrs
# [3] = tested on: Staphylococcus aureus; assay: Synergistic antibacterial activity against methicillin-resistant Staphylococcus aureus ATCC 43300 incubated for 18 to 20 hrs in presence of ciprofloxacin by checkboard assay; format: functional; conditions: time 18-20 hrs
# [4] = Hemolytic activity in mouse RBC assessed as hemolysis at 250 uM incubated for 1 hr; format: toxicity, cell-based, Erythrocyte; conditions: mouse red blood cells (erythrocytes), read-out: Activity
# [5] = tested on: Staphylococcus aureus; assay: Synergistic antibacterial activity against methicillin-resistant Staphylococcus aureus ATCC 43300 assessed as ciprofloxacin MIC incubated for 18 to 20 hrs by checkboard assay; format: functional; conditions: time 18-20 hrs
# [6] = tested on: Staphylococcus aureus; assay: Synergistic antibacterial activity against Staphylococcus aureus ATCC 25923 assessed as vancomycin MIC incubated for 18 to 20 hrs by checkboard assay; format: functional; conditions: time 18-20 hrs
# [7] = tested on: Staphylococcus aureus; assay: Synergistic antibacterial activity against Staphylococcus aureus ATCC 25923 incubated for 18 to 20 hrs in presence of gentamicin by checkboard assay; format: functional; conditions: time 18-20 hrs
# [8] = tested on: Enterococcus faecium; assay: Antibacterial activity against vancomycin-resistant Enterococcus faecium ATCC 700221 assessed as reduction in bacterial growth incubated for 18 to 20 hrs by broth microdilution assay; format: functional; conditions: time 18-20 hrs
# [9] = tested on: Enterococcus faecalis; assay: Synergistic antibacterial activity against Enterococcus faecalis ATCC 29212 assessed as fractional inhibitory concentration index incubated for 18 to 20 hrs in presence of ciprofloxacin by checkboard assay; format: functional; conditions: time 18-20 hrs
# [10] = tested on: Acinetobacter baumannii; assay: Antibacterial activity against Acinetobacter baumannii NCTC 13423 assessed as reduction in bacterial growth incubated for 18 to 20 hrs by broth microdilution assay; format: functional; conditions: time 18-20 hrs
# [11] = tested on: Staphylococcus aureus; assay: Synergistic antibacterial activity against Staphylococcus aureus ATCC 25923 assessed as fractional inhibitory concentration index incubated for 18 to 20 hrs in presence of gentamicin by checkboard assay; format: functional; conditions: time 18-20 hrs
# [12] = tested on: Enterococcus faecalis; assay: Synergistic antibacterial activity against Enterococcus faecalis ATCC 29212 assessed as gentamicin MIC incubated for 18 to 20 hrs by checkboard assay; format: functional; conditions: time 18-20 hrs
# [13] = tested on: Staphylococcus aureus; assay: Drug resistance, ratio of MIC for methicillin-resistant Staphylococcus aureus after 20 days exposure to MIC for methicillin-resistant Staphylococcus aureus during first exposure; format: functional; conditions: time 20 day
# [14] = tested on: Staphylococcus aureus; assay: Synergistic antibacterial activity against Staphylococcus aureus ATCC 25923 assessed as ciprofloxacin MIC incubated for 18 to 20 hrs by checkboard assay; format: functional; conditions: time 18-20 hrs
# [15] = tested on: Staphylococcus aureus; assay: Bactericidal activity against Staphylococcus aureus ATCC 25923 assessed as log reduction in colony forming units at 0.5 to 8 times MIC measured after 6 hrs by time kill-assay; format: functional
# [16] = Cytotoxicity against human THP-1 cells assessed as reduction in cell viability incubated for 24 hrs by resazurin staining based analysis; format: toxicity
# [17] = tested on: Pseudomonas aeruginosa; assay: Antibacterial activity against Pseudomonas aeruginosa ATCC 15442 assessed as reduction in bacterial growth incubated for 18 to 20 hrs by broth microdilution assay; format: functional; conditions: time 18-20 hrs
# [18] = Selectivity index, ratio of CC50 for cytotoxicity against human THP-1 cells assessed as reduction in cell viability to MIC for antibacterial activity against methicillin-resistant Staphylococcus aureus assessed as reduction in bacterial growth; format: toxicity, cell-based; conditions: read-out: Selectivity Index
# [19] = tested on: Staphylococcus epidermidis; assay: Antibacterial activity against […] Staphylococcus epidermidis RP62A assessed as reduction in bacterial growth incubated for 18 to 20 hrs by broth microdilution assay; format: functional; conditions: time 18-20 hrs
# [20] = tested on: Staphylococcus aureus; assay: Synergistic antibacterial activity against Staphylococcus aureus ATCC 25923 incubated for 18 to 20 hrs in presence of ciprofloxacin by checkboard assay; format: functional; conditions: time 18-20 hrs
# [21] = tested on: Erythrocyte; assay: Hemolytic activity in mouse RBC assessed as hemolysis at 62.5 uM incubated for 1 hr; format: toxicity, cell-based
# [22] = tested on: Staphylococcus aureus; assay: Antibacterial activity against Staphylococcus aureus ATCC 25923 assessed as inhibition of bacterial growth at 40 uM incubated for 18 to 24 hrs by broth microdilution assay relative to control; format: functional; conditions: time 18-24 hrs
# [23] = tested on: Enterococcus faecalis; assay: Synergistic antibacterial activity against Enterococcus faecalis ATCC 29212 incubated for 18 to 20 hrs in presence of ciprofloxacin by checkboard assay; format: functional; conditions: time 18-20 hrs
# [24] = tested on: Staphylococcus aureus; assay: Bactericidal activity against methicillin-resistant Staphylococcus aureus assessed as reduction in bacterial growth at 0.5 to 8 times MIC incubated for 24 hrs by time-kill assay; format: functional
# [25] = tested on: Staphylococcus aureus; assay: Synergistic antibacterial activity against methicillin-resistant Staphylococcus aureus ATCC 43300 incubated for 18 to 20 hrs in presence of linezolid by checkboard assay; format: functional; conditions: time 18-20 hrs
# [26] = tested on: Staphylococcus aureus; assay: Antibacterial activity against Staphylococcus aureus ATCC 43300 assessed as reduction in bacterial growth incubated for 18 to 20 hrs by broth microdilution assay; format: functional; conditions: time 18-20 hrs
# [27] = tested on: Enterococcus faecalis; assay: Antibacterial activity against vancomycin-resistant Enterococcus faecalis ATCC 51575 assessed as reduction in bacterial growth incubated for 18 to 20 hrs by broth microdilution assay; format: functional; conditions: time 18-20 hrs
# [28] = tested on: Staphylococcus aureus; assay: Synergistic antibacterial activity against methicillin-resistant Staphylococcus aureus ATCC 43300 assessed as vancomycin MIC incubated for 18 to 20 hrs by checkboard assay; format: functional; conditions: time 18-20 hrs
# [29] = tested on: Staphylococcus aureus; assay: Synergistic antibacterial activity against Staphylococcus aureus ATCC 25923 assessed as fractional inhibitory concentration index incubated for 18 to 20 hrs in presence of ciprofloxacin by checkboard assay; format: functional; conditions: time 18-20 hrs
# [30] = tested on: Staphylococcus aureus; assay: Antibiofilm activity against Staphylococcus aureus ATCC 25923 assessed as inhibition of biofilm viability at 100 uM incubated for 18 to 20 hrs by resazurin staining based assay; format: functional; conditions: time 18-20 hrs
# [31] = tested on: Staphylococcus aureus; assay: Bactericidal activity against Staphylococcus aureus ATCC 25923 assessed as reduction in viable bacterial count incubated for 2 hrs by time-kill assay; format: functional, organism-based
# [32] = tested on: Staphylococcus aureus; assay: Bactericidal activity against Staphylococcus aureus ATCC 25923 assessed as reduction in bacterial growth at 0.5 to 8 times MIC incubated for 24 hrs by time-kill assay; format: functional
# [33] = tested on: Enterococcus faecalis; assay: Antibacterial activity against Enterococcus faecalis ATCC 29212 assessed as reduction in bacterial growth incubated for 18 to 20 hrs by broth microdilution assay; format: functional; conditions: time 18-20 hrs
# [34] = tested on: Staphylococcus aureus; assay: Antibacterial activity against […] Staphylococcus aureus ATCC 43300 assessed as reduction in bacterial growth incubated for 18 to 20 hrs by broth microdilution assay; format: functional; conditions: time 18-20 hrs
# [35] = tested on: Staphylococcus aureus; assay: Synergistic antibacterial activity against Staphylococcus aureus ATCC 25923 incubated for 18 to 20 hrs in presence of linezolid by checkboard assay; format: functional; conditions: time 18-20 hrs
# [36] = tested on: Staphylococcus epidermidis; assay: Antibacterial activity against Staphylococcus epidermidis RP62A assessed as reduction in bacterial growth incubated for 18 to 20 hrs by broth microdilution assay; format: functional; conditions: time 18-20 hrs
# [37] = tested on: Enterococcus faecalis; assay: Synergistic antibacterial activity against Enterococcus faecalis ATCC 29212 assessed as ciprofloxacin MIC incubated for 18 to 20 hrs by checkboard assay; format: functional; conditions: time 18-20 hrs
# [38] = Hemolytic activity in mouse RBC assessed as hemolysis at 125 uM incubated for 1 hr; format: toxicity, cell-based, Erythrocyte; conditions: mouse red blood cells (erythrocytes), read-out: Activity
# [39] = tested on: Staphylococcus aureus; assay: Antimicrobial activity against methicillin-resistant Staphylococcus aureus ATCC 43300 infected in Caenorhabditis elegans AU37 assessed as reduction in bacterial burden at 20 uM incubated for 18 hrs; format: functional; design: scale not given: the % may be the effect or the level left
# [40] = tested on: Staphylococcus aureus; assay: Antibacterial activity against Staphylococcus aureus ATCC 25923 assessed as reduction in bacterial growth incubated for 18 to 20 hrs by broth microdilution assay; format: functional; conditions: time 18-20 hrs
smiles,measurement,setting,value
O=C(O)c1cc2cc(OCc3ccc(C4CCCCC4)c(C(F)(F)F)c3)ccc2[nH]1,fractional inhibitory concentration index (FICI),[1],1
same,MIC,[2],2.2 µM
same,MIC,[3],1.25 µM
same,"hemolysis at 1 h, 250 µM",[4],100%
same,MIC,[5],1.25 µM
same,MIC,[6],0.625 µM
same,MIC,[7],1.25 µM
same,MIC,[8],5 µM
same,fractional inhibitory concentration index (FICI),[9],0.75
same,MIC,[10],> 200 µM
same,fractional inhibitory concentration index (FICI),[11],0.5
same,MIC,[12],1 µg/mL
same,Ratio,[13],3
same,MIC,[14],0.312 µM
same,log(activity),[15],>3
same,CC50 at 24 h,[16],> 100 µM
same,MIC,[17],> 200 µM
same,selectivity ratio,[18],> 12
same,MIC,[19],2.5 µM
same,MIC,[20],2.5 µM
same,Activity,[21],Non-Toxic
same,inhibition at 40 µM,[22],≤ 90%
same,MIC,[23],1.25 µM
same,MBC,[24],5 µM
same,MIC,[25],1.25 µM
same,MIC,[26],2.5 µM
same,MIC,[27],10 µM
same,MIC,[28],1.25 µM
same,fractional inhibitory concentration index (FICI),[29],0.625
same,inhibition at 100 µM,[30],> 90%
same,Activity,[31],Dose-Dependent Effect
same,MBC,[32],5 µM
same,MIC,[33],5 µM
same,MIC,[34],2.5 µM
same,MIC,[35],2.5 µM
same,MIC,[36],2.5 µM
same,MIC,[37],1.25 µM
same,"hemolysis at 1 h, 125 µM",[38],57%
same,Activity,[39],88%
same,MIC,[40],5 µM and 2.1 µg/mL
